Entries after “also recorded” stand apart in the source; their conditions may differ. Like-named read-outs stand apart in the source and are kept apart here.

For data set [1], the system named is LASVpv (LASV pseudotyped virus bearing LASV GPC, Josiah strain). In words: microbe, parasite or virus in culture. It is filed as cell-based, Lassa virus.
The next data set addresses LASV GP2 (Lassa virus, UniProt P08669). Put plainly: biochemical. It is filed as binding. Conditions: for kon: read-out: ka.
The subject of data set [2] is VSV pseudotyped lentivirus (VSVpv). It is filed as cell-based, vesicular stomatitis virus.
Another data set is described as follows: in vitro. Conditions: human.
The mark [3] stands for this setting: Mammarenavirus lassaense, HEK293, 48 h.

Chain of LASV GP2 (P08669 260-491 limits assumed): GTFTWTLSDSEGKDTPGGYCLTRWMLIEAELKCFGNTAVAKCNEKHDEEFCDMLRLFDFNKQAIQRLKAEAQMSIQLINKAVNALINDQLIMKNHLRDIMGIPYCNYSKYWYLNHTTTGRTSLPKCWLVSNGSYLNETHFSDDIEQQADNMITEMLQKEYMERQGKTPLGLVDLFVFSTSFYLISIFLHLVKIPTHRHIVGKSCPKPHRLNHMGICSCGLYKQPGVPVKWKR

As a reminder, the IC50 is the point on the concentration scale where inhibition reaches its midpoint. What is called Kd is a measure of binding affinity in units of concentration. “N-(2, 4-dimethoxybenzyl)-1-(4-methoxyphenyl)-1H-benzo[d]imidazol-5-amine [Compound 13c]”: in data set [1] (read-out: IC50), the IC50 was found to be 0.0155 µM. At LASV GP2, the ka came to 39500 M⁻¹ s⁻¹ and the kd worked out at 0.03 s⁻¹. Moreover, on LASV GP2 (read-out: KD), the Kd turned out to be 0.825 µM. The CC50 in the data set with HEK-293 cells was 74.2 µM.
On to `CC(C)Oc1ccc(-n2cnc3cc(/C=C\c4ccc(C(C)(C)O)cc4)ccc32)cc1` [LHF−535, reference compound], for which, in data set [1], the “inhibition of LASVpv infection (EGFP expression)” value is listed as “concentration-dependent”. In data set [1] (setting [3]), this molecule registered an IC50 of 0.00304 µM. For the same molecule, at LASV GP2, the Kd came out at 0.114 µM, the kd amounted to 0.03 s⁻¹ and the kon is 304000 M⁻¹ s⁻¹. Besides, in data set [2], the “antiviral effect against VSVpv infection” value is recorded as “little or no effect; also recorded: did not exhibit an antiviral effect”. In addition, the CC50 in the data set “in vitro” was determined as 3.68 µM.
One may read the melting point as the temperature, or range, at which the solid turns liquid. Take `CC(C)Oc1ccc(-n2cnc3cc(/C=C\c4ccc(OC(F)F)cc4)ccc32)cc1` [Compound 7e−Z, (Z)-5-(4-(difluoromethoxy)styryl)-1-(4-isopropoxyphenyl)-1H-benzo[d]imidazole]: the melting point fell in the range of 173 to 174 °C. The molecule further came in with an IC50 in data set [1] (setting [3]) of 0.0344 µM. Also, on LASV GP2, the Kd stood at 1.98 µM, the kd was 0.08 s⁻¹ and the kon amounted to 43400 M⁻¹ s⁻¹. Besides, the CC50 in the data set “in vitro” came out at 17.9 µM.
The molecule `COc1ccc(-n2cnc3cc(NCc4ccc(Cl)c(Cl)c4)ccc32)cc1` [Compound 13i, N-(3,4-dichlorobenzyl)-1-(4-methoxyphenyl)-1H-benzo[d]imidazol-5-amine] came in with a melting point of 134.1 to 135.8 °C. In addition, the IC50 in data set [1] (setting [3]) was found to be 0.0532 µM. For the same molecule, at LASV GP2, binding was put at a Kd of 25.4 µM, the kd is 0.49 s⁻¹ and the kon is 19400 M⁻¹ s⁻¹. Also, the CC50 in the data set “in vitro” worked out at 81.7 µM.

The values above are taken from PMC9963587 (Molecules, 2023).
